Measurements as given in PubChem BioAssay (NCI).
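Step 1: Grow cells in 96-well plates. Step 2: Expose to compound for 48 hours at 5 concentrations. Step 3: Interpolate endpoints linearly; if unreached, use highest concentration. At the TGI there is no net growth.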 Where a SMILES comes first, the peptide text is derived from it. The star is where a group is joined. Boc = CC(C)(C)OC(=O)*; OBn = c1ccc(CO*)cc1; Bn = c1ccc(C*)cc1

Legend:
Assay in all cases: growth of human tumour cells (NCI), 48 h
786-0 renal = test system: 786-0 renal
CAKI-1 renal = test system: CAKI-1 renal
COLO 205 colon = test system: COLO 205 colon
DU-145 prostate = test system: DU-145 prostate
HOP-62 NSCLC = test system: HOP-62 NSCLC
HS 578T breast = test system: HS 578T breast
MDA-MB-435 = test system: MDA-MB-435
NCI-H23 lung = test system: NCI-H23 lung
NCI/ADR-RES ovarian = test system: NCI/ADR-RES ovarian
SF-268 CNS = test system: SF-268 CNS
SK-MEL-2 melanoma = test system: SK-MEL-2 melanoma
UO-31 renal = test system: UO-31 renal
SR leukemia = test system: SR leukemia

SMILES	TGI (786-0 renal)	TGI (CAKI-1 renal)	TGI (COLO 205 colon)	TGI (DU-145 prostate)	TGI (HOP-62 NSCLC)	TGI (HS 578T breast)	TGI (MDA-MB-435)	TGI (NCI-H23 lung)	TGI (NCI/ADR-RES ovarian)	TGI (SF-268 CNS)	TGI (SK-MEL-2 melanoma)	TGI (UO-31 renal)	TGI (SR leukemia)
O=C(O)CC(Cc1ccccc1)C(=O)O (configuration not stated)	> 100 µM	> 100 µM	> 100 µM	> 100 µM	> 100 µM	> 100 µM	> 100 µM	> 100 µM	> 100 µM	> 100 µM	> 100 µM	> 100 µM	
CCNc1nc2ccccc2nc1NCC	> 100 µM	> 100 µM	> 100 µM	> 100 µM		> 100 µM	> 100 µM	> 100 µM	> 100 µM	> 100 µM	> 100 µM	> 100 µM	> 100 µM
CN(C)CCNc1ccccn1	> 100 µM	> 100 µM		> 100 µM	> 100 µM	> 100 µM	> 100 µM	> 100 µM	> 100 µM	> 100 µM	> 100 µM	> 100 µM	> 100 µM
O=C(CSCC(=O)N/N=C/c1ccc(F)cc1)N/N=C/c1ccc(F)cc1	> 100 µM		> 100 µM	> 100 µM	> 100 µM	> 100 µM		> 100 µM	> 100 µM	> 100 µM	> 100 µM	> 100 µM	> 100 µM
CSCC[C@@H](NC(=O)[C@H](CC(C)C)NC(=O)C(Cc1cnc[nH]1)NC(=O)CNC(=O)[C@@H](NC(=O)[C@H](C)NC(=O)[C@H](Cc1cn(C=O)c2ccccc12)NC(=O)[C@H](CCC(N)=O)NC(=O)[C@@H](N)CC(N)=O)C(C)C)C(N)=O (some centres not stated)			> 100 µM		> 100 µM			> 100 µM	> 100 µM	> 100 µM	> 100 µM	> 100 µM	
COC(=O)c1ccc2c(c1)CC1(C2)Cc2ccc3c(c2C1)CCC3 (configuration not stated)	> 100 µM		32.1 µM	> 100 µM	93 µM	> 100 µM	14.3 µM	> 100 µM		> 100 µM			> 100 µM
O=C1OS2(OC(=O)c3cccc4cccc2c34)c2ccccc21 (configuration not stated)	> 100 µM	> 100 µM	> 100 µM	> 100 µM	> 100 µM	> 100 µM	> 100 µM	> 100 µM	> 100 µM	> 100 µM	> 100 µM	> 100 µM	
O=C1N2CCN=C2c2ccccc2C1(O)c1ccccc1 (configuration not stated)	> 100 µM	> 100 µM	> 100 µM	> 100 µM	> 100 µM	> 100 µM	> 100 µM	> 100 µM	> 100 µM	> 100 µM		> 100 µM	> 100 µM
C/C(=C/CC[C@](C)(OC1OC(CO)C(O)C(O)C1OC1OC(C)C(O)C(O)C1O)[C@H]1CC[C@]2(C)[C@@H]1CC[C@@H]1[C@@]3(C)CC[C@H](O)C(C)(C)[C@@H]3C[C@H](O)[C@]12C)CO (some centres not stated)	> 100 µM	> 100 µM	> 100 µM	> 100 µM	> 100 µM	> 100 µM	> 100 µM	> 100 µM	> 100 µM	> 100 µM		> 100 µM	> 100 µM
CC(C)CC(NC(=O)C(CCC(=O)OCc1ccccc1)NC(=O)OC(C)(C)C)C(=O)NC(COCc1ccccc1)C(=O)NC(Cc1ccccc1)C(=O)O (configuration not stated) (Boc-E(OBn)LS(Bn)F-OH; configuration not given here)	> 100 µM		> 100 µM		> 100 µM	> 100 µM		> 100 µM			> 100 µM	> 100 µM	> 100 µM
